Laboratory results taken from patent US10813920B2, “Drug for treating corneal endothelium by promoting cell proliferation or inhibiting cell damage” (THE DOSHISHA, priority 2013, dated 2020).

What was measured:
p38 MAP kinase signal = experiment: Western blotting of phosphorylated ATF2, downstream molecule of p38 MAP kinase signal; type: cell-based, human; settings: Western blotting after 20 days from stimulation; 10 μM and 30 μM
Protocol: *Human corneal endothelial cells (HCEC, where the cells were obtained and culturing method thereof): HCEC was cultured as follows. In short, Descemet's membrane including corneal endothelial cells was peeled off from a corneal for research purchased from the Seattle Eye Bank, and the corneal endothelial cells were mechanically peeled off with a basal membrane. […] Specifically, after digestion at 37° C., HCEC obtained from individual corneas was resuspended in a culture medium and plated on a well of a 12-well plate coated with FNC Coating Mix®. The culture medium was prepared in accordance with a partially-modified disclosed protocol. In short, a basal cultural medium containing OptiMEM-I (Life Technologies), 8% FBS, 5 ng/mL of epithelial growth factor (EGF) (Sigma-Aldrich Co., St. Louis, Mo.), 20 μg/mL of ascorbic acid (Sigma-Aldrich), 200 mg/L calcium chloride (Sigma-Aldrich), 0.08% chondroitin sulfate (Wako Pure Chemical Industries, Osaka) and 50 μg/mL of gentamicin was prepared and an acclimated medium was collected after inactivated 3T3 fibroblasts were cultured. The 3T3 fibroblasts were inactivated as previously described. […] Immunostaining was applied to the cells for observation with a fluorescence microscope. […]

corneal endothelium [1] = experiment: Partial rabbit corneal endothelial disorder model, eye drops; type: in vivo
Protocol: A stainless steel chip with a diameter of 7 mm was immersed in liquid nitrogen and cooled. The chip was contacted with the center portion of a corneal of a Japanese white rabbit (obtained from Oriental Bioservice) for 15 seconds under general anesthesia, such that corneal endothelial cells at the center portion partially fell off. Eye drops of SB203580 adjusted to 10 mM was then administered 4 times a day for 2 days at 50 μl per dose. As a control, eye drops of a base agent were administered in an eye in which a partial corneal endothelial disorder was similarly created, and a picture was taken. Further, the rabbit was euthanized and the corneal was extracted. The wounded area of the corneal endothelium was stained with alizarin red S (Nacalai Tesque, CI-58005) and observed. Furthermore, immunostaining was applied to corneal tissue with the cell proliferation marker Ki67. The same methodology as the aforementioned Examples or the like was used for immunostaining.

[2] = system: human corneal endothelial cells; experiment: UV-induced cell death, live cell count; type: cell-based; settings: UV 100 J/m^2; 10 μM; 12 hours after UV irradiation; vs UV only
Protocol: In order to study the effect of a p38 MAP kinase signal inhibition on cell death, cultured human corneal endothelial cells were stimulated with ultraviolet rays (UV) of 100 J/m^2 to induce cell death to study the effect of SB203580 (used at 10 μM). The number of cells was counted for the study.

corneal endothelium [3] = experiment: Monkey corneal endothelial partial disorder model, eye drops, Ki-67 immunostaining; type: in vivo, cynomolgus monkey; settings: 3 mM eye drops, 50 μl, 4 times a day, right eye; vs base agent in left eye; 5 views per eye; p<0.01
Protocol: After a stainless steel bar with a diameter of 7 mm was cooled with liquid nitrogen, the bar was contacted with the corneal in both eyes of 2 cynomolgus monkeys (purchased from Shiga University of Medical Science). About 7 mm in diameter of the corneal endothelium fell off to make a partial disorder model.
50 μl of SB203580 (3 mM) eyedrops was then administered into the right eye 4 times a day. Similarly, eye drops of abase agent, which is phosphate buffer solution, were administered into the left eye as the control.
Expression of Ki-67 associated with cell proliferation was confirmed to be elevated after administration of SB203580 eye drops by immunostaining. The methodology of immunostaining was in accordance with the above-described Preparation Example 2. The antibodies were changed to antibodies to Ki-67 to conduct the experiment.
For a tissue staining inspection, cultured cells were immobilized with 4% formaldehyde for 10 minutes at room temperature (RT) and incubated for 60 minutes with 1% bovine serum albumin (BSA). The antibodies to Ki-67 were diluted 1:200 to conduct the inspection. For secondary antibodies, a 1:1000 dilution of Alexa Fluor® 488 labeling goat antimouse IgG (Life Technologies) was used. […] Slides were then observed under a fluorescence microscope (all-in-one fluorescence microscope, KEYENCE, Osaka, JAPAN). […]

[4] = cited from earlier work

C[S+]([O-])c1ccc(-c2nc(-c3ccncc3)c(-c3ccc(F)cc3)[nH]2)cc1 (centres unmarked) [SB203580, 4-(4-fluorophenyl)-2-(4-methylsulfinylphenyl)-5-(4-pyridyl)-1H-imidazole]
phosphorylation of ATF2 (p38 MAP kinase signal): suppressed | wound area of corneal endothelium (alizarin staining) (corneal endothelium [1]; 10 mM eye drops 4 times a day for 2 days, 50 μl per dose, 6 eyes each, vs control, p<0.01): contracted significantly more | transparency of cornea (anterior eye section picture) (corneal endothelium [1]; 10 mM eye drops 4 times a day for 2 days, 50 μl per dose, day 2): recovered quickly | Expression of Ki67 in corneal tissue (ratio of Ki67 positive cells) (corneal endothelium [1]; 10 mM eye drops, vs control): significantly more cells | number of live cells after UV irradiation (percentage to control) [2]: significantly increases | percentage of Ki67 positive cells in corneal endothelium (corneal endothelium [3]): significantly more Ki67 positive cells | solubility in methanol ([4]; methanol): soluble | solubility in water (pharmacopoeia class) ([4]; water): difficult to dissolve (100 mL or greater and less than 1000 mL)
